Test results: patent publication US5235045A, “Non-azo naphthalimide dyes” (priority 1992, dated 1993)
Where two headings read alike, the source gives them in different places.

Columns and labels:
[1] = system: Herpes simplex virus type 1; assay: Effect of Ed6Br and light on aqueous suspensions of HSV-1 (plaque assay); type: cell-based, MacIntyre strain
[2] = system: H9 cells; assay: Dye-mediated light kill of H9 cells (trypan blue); type: cell-based; conditions: Homo sapiens, read-out: Percent Viability
Method: Photoinduced killing of H9 cells with Compound 1b as the mediator of photochemical toxicity were carried out according to the following protocol:
Compound 1b was added to the H9 cells (5×10^5 /ml) in medium or 100% human plasma to give dye concentrations of 0, 25 and 100 μM (1 control, 2 duplicates of both non-azo dye samples). Two 2-ml aliquots of each of the duplicated dye samples was irradiated with 10J/cm^2 total energy of 450±35 nm wavelength light in a sealed 3-ml test tube. Immediately after irradiation, the cells were centrifuged at 450×g for 10 minutes, and the pellets resuspended in the original volume of fresh RPMI-1640+10% FCS+gentamycin. The cell suspensions were transferred to a 12-well TC plate and placed in a 37° C. 5% CO2 incubator. Cell viability counts (trypan blue) were carried out at 4, 24, 48, and 72 hours post irradiation. The results of these experiments are summarized in Tables 7 (medium) and 8 (100% human plasma).
Photoinduced killing of H9 cells with Compound VII as the mediator of photochemical toxicity were carried out in 10% FCS medium according to the same general protocol using concentrations of the dye at 0, 5, 25 and 100 μM., and irradiating at 420±5 nm at 10J/cm^2 total energy.

[3] = system: H9 cells; assay: Location in living cells (fluorescence microscopy); type: cell-based, human; conditions: 5 and 25 μM; 1.5 hours
Method: Following the protocol of (1), above, H9 cells were stained with Compound lb, and the technique of fluorescent microscopy was used to determine visually the sites of localization of dye fluorescence in living cells. Specifically, H9 cells were counted with a hemocytometer and diluted to 5×10^5 /ml. Compound 1b was added to two aliquots to give dye concentrations of 5 and 25 μM, and the tubes were incubated for 1.5 hours. Cytospin slides of the cell suspensions were made and they were examined with the fluorescence microscope (Olympus AH-2) using B excitation plus a 460 nm interference excitation filter and a 495 nm emission filter. The cells were also counted with a hemocytometer and their viability determined (see below). […] The former may reflect the diffusional component of the dye incorporation, or may reflect binding in the ER membrane. The latter may indicate lysosomal localization of pinocytosed dye as occurs with Lucifer Yellow.

[4] = H9, 4 h, no hν, 10% FCS medium, 4 hours
[5] = H9, light or radiation study, 4 h, hν 420±5 nm 10J/cm^2, 10% FCS medium, 4 hours
[6] = H9, 4 h, no hν, 100% human plasma, 4 hours
[7] = H9, 24 h, no hν, 10% FCS medium, 24 hours
[8] = H9, 24 h, no hν, 100% human plasma, 24 hours
[9] = H9, 48 h, no hν, 10% FCS medium, 48 hours
[10] = H9, 48 h, no hν, 100% human plasma, 48 hours
[11] = H9, 72 h, no hν, 10% FCS medium, 72 hours
[12] = H9, 72 h, no hν, 100% human plasma, 72 hours
[13] = H9, light or radiation study, 4 h, hν 10J/cm^2, 450±35 nm, 10% FCS medium, 4 hours
[14] = H9, light or radiation study, 4 h, hν 10J/cm^2, 450±35 nm, 100% human plasma, 4 hours
[15] = H9, light or radiation study, 24 h, hν 10J/cm^2, 450±35 nm, 10% FCS medium, 24 hours
[16] = H9, light or radiation study, 24 h, hν 10J/cm^2, 450±35 nm, 100% human plasma, 24 hours
[17] = H9, light or radiation study, 48 h, hν 10J/cm^2, 450±35 nm, 10% FCS medium, 48 hours
[18] = H9, light or radiation study, 48 h, hν 10J/cm^2, 450±35 nm, 100% human plasma, 48 hours
[19] = H9, light or radiation study, 72 h, hν 10J/cm^2, 450±35 nm, 10% FCS medium, 72 hours
[20] = H9, light or radiation study, 72 h, hν 10J/cm^2, 450±35 nm, 100% human plasma, 72 hours

CCCCCCNc1c(Br)cc2c3c(cccc13)C(=O)N(CCCCCC)C2=O [Compound VII, 3-bromo-4-(hexyl)amino-N-hexyl-1,8-naphthalimide]
PFU/ml ([1]; 1.25 μM, irradiated 20 J/cm2, 420 nm): 0 PFU/ml | PFU/ml ([1]; 2.5 μM, irradiated 20 J/cm2, 420 nm): 0 PFU/ml | PFU/ml ([1]; 5 μM, irradiated 20 J/cm2, 420 nm): 0 PFU/ml | PFU/ml ([1]; 10 μM, irradiated 20 J/cm2, 420 nm): 0 PFU/ml | PFU/ml ([1]; .078 μM, irradiated 20 J/cm2, 420 nm): 3.8 × 10^1 PFU/ml | PFU/ml ([1]; .156 μM, irradiated 20 J/cm2, 420 nm): 1.8 × 10^1 PFU/ml | PFU/ml ([1]; .312 μM, irradiated 20 J/cm2, 420 nm): 7.5 × 10^0 PFU/ml | PFU/ml ([1]; .625 μM, irradiated 20 J/cm2, 420 nm): 0 PFU/ml | log reduction at 1.25 µM ([1]; Human alphaherpesvirus 1, light or radiation study, 1.25 μM, irradiated 20 J/cm2, 420 nm, read-out: Log10 Reduction): 5.8 | log reduction at 2.5 µM ([1]; Human alphaherpesvirus 1, light or radiation study, 2.5 μM, irradiated 20 J/cm2, 420 nm, read-out: Log10 Reduction): 5.8 | log reduction at 5 µM ([1]; Human alphaherpesvirus 1, light or radiation study, 5 μM, irradiated 20 J/cm2, 420 nm, read-out: Log10 Reduction): 5.8 | log reduction at 10 µM ([1]; Human alphaherpesvirus 1, light or radiation study, 10 μM, irradiated 20 J/cm2, 420 nm, read-out: Log10 Reduction): 5.8 | log reduction at 0.078 µM ([1]; Human alphaherpesvirus 1, light or radiation study, .078 μM, irradiated 20 J/cm2, 420 nm, read-out: Log10 Reduction): 4.22 | log reduction at 0.156 µM ([1]; Human alphaherpesvirus 1, light or radiation study, .156 μM, irradiated 20 J/cm2, 420 nm, read-out: Log10 Reduction): 4.54 | log reduction at 0.312 µM ([1]; Human alphaherpesvirus 1, light or radiation study, .312 μM, irradiated 20 J/cm2, 420 nm, read-out: Log10 Reduction): 4.92 | log reduction at 0.625 µM ([1]; Human alphaherpesvirus 1, light or radiation study, .625 μM, irradiated 20 J/cm2, 420 nm, read-out: Log10 Reduction): 5.8 | kill of HSV-1 ([1]; as low as 0.078 mM, 420 nm, 20 J/cm2, 2.5% or less of serum proteins): > 99.99% | viability at 5 µM [2, 4]: 86.5% | viability at 25 µM ([2]; H9, 4 h, no hν, 10% FCS medium, 4 hours (Table 9)): 90% | viability at 5 µM [2, 5]: 0% | viability at 25 µM [2, 5]: 0% | viability at 100 µM ([2]; H9, light or radiation study, 4 h, hν 420±5 nm 10J/cm^2, 10% FCS medium, 4 hours, light reached only approximately 2 mm): 1.8%

CCCCCCNc1ccc2c3c(cccc13)C(=O)N(CCCCCC)C2=O [Compound 1b, 4-(hexyl)amino-N-hexyl-1,8-naphthalimide]
localization in cell nucleus [3]: rigorously excluded from the cell nucleus | site of dye fluorescence [3]: highly fluorescent with the cytoplasm being the primary site | viability at 25 µM [2, 4]: 96.9% | viability at 25 µM [2, 6]: 97.2% | viability at 100 µM [2, 4]: 94.6% | viability at 100 µM [2, 6]: 99.2% | viability at 25 µM [2, 7]: 94.8% | viability at 25 µM [2, 8]: 93.4% | viability at 100 µM [2, 7]: 94.6% | viability at 100 µM [2, 8]: 94.3% | viability at 25 µM [2, 9]: 90.5% | viability at 25 µM [2, 10]: 86.4% | viability at 100 µM [2, 9]: 91.3% | viability at 100 µM [2, 10]: 90.7% | viability at 25 µM [2, 11]: 91.4% | viability at 25 µM [2, 12]: 85% | viability at 100 µM [2, 11]: 85.1% | viability at 100 µM [2, 12]: 87.4% | viability at 25 µM [2, 13]: 62.8% | viability at 25 µM [2, 14]: 97.9% | viability at 100 µM [2, 13]: 87.2% | viability at 100 µM [2, 14]: 97.4% | viability at 25 µM [2, 15]: 8.4% | viability at 25 µM [2, 16]: 94.4% | viability at 100 µM [2, 15]: 52% | viability at 100 µM [2, 16]: 92.4% | viability at 25 µM [2, 17]: 10% | viability at 25 µM [2, 18]: 86.5% | viability at 100 µM [2, 17]: 64.8% | viability at 100 µM [2, 18]: 92.6% | viability at 25 µM [2, 19]: 30.6% | viability at 25 µM [2, 20]: 90.2% | viability at 100 µM [2, 19]: 71.4% | viability at 100 µM [2, 20]: 88.2%
